# From ChEMBL document CHEMBL1240349, “Influence of tigecycline on expression of virulence factors in biofilm-associated cells of methicillin-resistant Staphylococcus aureus” (2010)
# Tests used:
# Assay type in all cases: functional
# Staphylococcus aureus [1] = assay: Increase in fnbB gene expression in biofilm-associated cells of epidemic methicillin-resistant Staphylococcus aureus isolate 16 at 4 times MIC incubated for 1 hr by whole genome microarray relative to untreated control
# Staphylococcus aureus [2] = assay: Increase in fnbA gene expression in biofilm-associated cells of epidemic methicillin-resistant Staphylococcus aureus isolate 16 at 4 times MIC incubated for 1 hr by whole genome microarray relative to untreated control
# Staphylococcus aureus [3] = assay: Decrease in icaC gene expression in biofilm-associated cells of epidemic methicillin-resistant Staphylococcus aureus isolate 16 at 4 times MIC incubated for 1 hr by whole genome microarray relative to untreated control
# Staphylococcus aureus [4] = assay: Decrease in capG gene expression in biofilm-associated cells of epidemic methicillin-resistant Staphylococcus aureus isolate 16 at 4 times MIC incubated for 1 hr by whole genome microarray relative to untreated control
# Staphylococcus aureus [5] = assay: Decrease in cap8H gene expression in biofilm-associated cells of epidemic methicillin-resistant Staphylococcus aureus isolate 16 at 4 times MIC incubated for 1 hr by whole genome microarray relative to untreated control
# Staphylococcus aureus [6] = assay: Increase in tsf gene expression in biofilm-associated cells of epidemic methicillin-resistant Staphylococcus aureus isolate 16 at 4 times MIC incubated for 1 hr by whole genome microarray relative to untreated control
# Staphylococcus aureus [7] = assay: Increase in rpmI gene expression in biofilm-associated cells of epidemic methicillin-resistant Staphylococcus aureus isolate 16 at 4 times MIC incubated for 1 hr by whole genome microarray relative to untreated control
# Staphylococcus aureus [8] = assay: Increase in rpsE gene expression in biofilm-associated cells of epidemic methicillin-resistant Staphylococcus aureus isolate 16 at 4 times MIC incubated for 1 hr by whole genome microarray relative to untreated control
# Staphylococcus aureus [9] = assay: Decrease in asp23 gene expression in biofilm-associated cells of epidemic methicillin-resistant Staphylococcus aureus isolate 16 at 4 times MIC incubated for 1 hr by whole genome microarray relative to untreated control
# Staphylococcus aureus [10] = assay: Decrease in tst gene expression in biofilm-associated cells of epidemic methicillin-resistant Staphylococcus aureus isolate 16 at 4 times MIC incubated for 1 hr by whole genome microarray relative to untreated control
# Staphylococcus aureus [11] = assay: Decrease in capC gene expression in biofilm-associated cells of epidemic methicillin-resistant Staphylococcus aureus isolate 16 at 4 times MIC incubated for 1 hr by RT-PCR relative to untreated control
# Staphylococcus aureus [12] = assay: Decrease in sasF gene expression in biofilm-associated cells of epidemic methicillin-resistant Staphylococcus aureus isolate 16 at 4 times MIC incubated for 1 hr by RT-PCR relative to untreated control
# Staphylococcus aureus [13] = assay: Decrease in clpC gene expression in biofilm-associated cells of epidemic methicillin-resistant Staphylococcus aureus isolate 16 at 4 times MIC incubated for 1 hr by RT-PCR relative to untreated control
# Staphylococcus aureus [14] = assay: Decrease in sodA gene expression in biofilm-associated cells of epidemic methicillin-resistant Staphylococcus aureus isolate 16 at 4 times MIC incubated for 1 hr by whole genome microarray relative to untreated control
# Staphylococcus aureus [15] = assay: Increase in mnhD gene expression in biofilm-associated cells of epidemic methicillin-resistant Staphylococcus aureus isolate 16 at 4 times MIC incubated for 1 hr by whole genome microarray relative to untreated control
# Staphylococcus aureus [16] = assay: Increase in mnhE gene expression in biofilm-associated cells of epidemic methicillin-resistant Staphylococcus aureus isolate 16 at 4 times MIC incubated for 1 hr by whole genome microarray relative to untreated control
# Staphylococcus aureus [17] = assay: Decrease in dinR gene expression in biofilm-associated cells of epidemic methicillin-resistant Staphylococcus aureus isolate 16 at 4 times MIC incubated for 1 hr by whole genome microarray relative to untreated control
# Staphylococcus aureus [18] = assay: Increase in recU gene expression in biofilm-associated cells of epidemic methicillin-resistant Staphylococcus aureus isolate 16 at 4 times MIC incubated for 1 hr by whole genome microarray relative to untreated control
# Staphylococcus aureus [19] = assay: Increase in rpoC gene expression in biofilm-associated cells of epidemic methicillin-resistant Staphylococcus aureus isolate 16 at 4 times MIC incubated for 1 hr by whole genome microarray relative to untreated control
# Staphylococcus aureus [20] = assay: Increase in sstD gene expression in biofilm-associated cells of epidemic methicillin-resistant Staphylococcus aureus isolate 16 at 4 times MIC incubated for 1 hr by whole genome microarray relative to untreated control
# Staphylococcus aureus [21] = assay: Decrease in sasF gene expression in biofilm-associated cells of epidemic methicillin-resistant Staphylococcus aureus isolate 16 at 4 times MIC incubated for 1 hr by whole genome microarray relative to untreated control
# Staphylococcus aureus [22] = assay: Decrease in icaC expression in biofilm-associated cells of epidemic methicillin-resistant Staphylococcus aureus isolate 16-1 at 4 times MIC incubated for 1 hr by RT-PCR relative to untreated control
# Staphylococcus aureus [23] = assay: Decrease in capG expression in biofilm-associated cells of epidemic methicillin-resistant Staphylococcus aureus isolate 16-2 at 4 times MIC incubated for 1 hr by RT-PCR relative to untreated control
# Staphylococcus aureus [24] = assay: Decrease in clpC expression in biofilm-associated cells of epidemic methicillin-resistant Staphylococcus aureus isolate 16-2 at 4 times MIC incubated for 1 hr by RT-PCR relative to untreated control
# Staphylococcus aureus [25] = assay: Increase in cna expression in biofilm-associated cells of epidemic methicillin-resistant Staphylococcus aureus isolate 16-2 at 4 times MIC incubated for 1 hr by RT-PCR relative to untreated control
# Staphylococcus aureus [26] = assay: Increase in isaA expression in biofilm-associated cells of epidemic methicillin-resistant Staphylococcus aureus isolate 16-2 at 4 times MIC incubated for 1 hr by RT-PCR relative to untreated control
# Staphylococcus aureus [27] = assay: Decrease in sasF expression in biofilm-associated cells of epidemic methicillin-resistant Staphylococcus aureus isolate 16-2 at 4 times MIC incubated for 1 hr by RT-PCR relative to untreated control
# Staphylococcus aureus [28] = assay: Decrease in capG expression in biofilm-associated cells of epidemic methicillin-resistant Staphylococcus aureus isolate 15 at 4 times MIC incubated for 1 hr by RT-PCR relative to untreated control
# Staphylococcus aureus [29] = assay: Decrease in clpC expression in biofilm-associated cells of epidemic methicillin-resistant Staphylococcus aureus isolate 15 at 4 times MIC incubated for 1 hr by RT-PCR relative to untreated control
# Staphylococcus aureus [30] = assay: Decrease in mnhG expression in biofilm-associated cells of epidemic methicillin-resistant Staphylococcus aureus isolate 15 at 4 times MIC incubated for 1 hr by RT-PCR relative to untreated control
# Staphylococcus aureus [31] = assay: Increase in ssaA expression in biofilm-associated cells of epidemic methicillin-resistant Staphylococcus aureus isolate 15 at 4 times MIC incubated for 1 hr by RT-PCR relative to untreated control
compound,measurement,setting,value
CN(C)c1cc(NC(=O)CNC(C)(C)C)c(O)c2c1C[C@H]1C[C@H]3[C@H](N(C)C)C(O)=C(C(N)=O)C(=O)[C@@]3(O)C(O)=C1C2=O [TIGECYCLINE],fold change (FC),Staphylococcus aureus [1],5.34
same,fold change (FC),Staphylococcus aureus [2],2.3
same,fold change (FC),Staphylococcus aureus [3],2.06
same,fold change (FC),Staphylococcus aureus [4],2.3
same,fold change (FC),Staphylococcus aureus [5],2.18
same,fold change (FC),Staphylococcus aureus [6],3.23
same,fold change (FC),Staphylococcus aureus [7],10.51
same,fold change (FC),Staphylococcus aureus [8],11.01
same,fold change (FC),Staphylococcus aureus [9],8.61
same,fold change (FC),Staphylococcus aureus [10],2.39
same,fold change (FC),Staphylococcus aureus [11],1.75
same,fold change (FC),Staphylococcus aureus [12],1.32
same,fold change (FC),Staphylococcus aureus [13],1.14
same,fold change (FC),Staphylococcus aureus [14],2.59
same,fold change (FC),Staphylococcus aureus [15],1.93
same,fold change (FC),Staphylococcus aureus [16],3.15
same,fold change (FC),Staphylococcus aureus [17],3.31
same,fold change (FC),Staphylococcus aureus [18],4.38
same,fold change (FC),Staphylococcus aureus [19],3.28
same,fold change (FC),Staphylococcus aureus [20],3.27
same,fold change (FC),Staphylococcus aureus [21],2.3
same,fold change (FC),Staphylococcus aureus [22],2.23
same,fold change (FC),Staphylococcus aureus [23],1.96
same,fold change (FC),Staphylococcus aureus [24],19.87
same,fold change (FC),Staphylococcus aureus [25],1.2
same,fold change (FC),Staphylococcus aureus [26],3.7
same,fold change (FC),Staphylococcus aureus [27],3.53
same,fold change (FC),Staphylococcus aureus [28],1.58
same,fold change (FC),Staphylococcus aureus [29],1.23
same,fold change (FC),Staphylococcus aureus [30],1.64
same,fold change (FC),Staphylococcus aureus [31],1.17
